ChEMBL document CHEMBL5625277, “Systematical mutational analysis of teriparatide on anti-osteoporosis activity by alanine scanning” (Bioorg Med Chem Lett, 2024)

Assay: Cytotoxicity in pre-osteoblasts (unknown origin) assessed as cell death upto 5 uM by CCK8 assay
Type: toxicity, cell-based
Settings: pre-osteoblast
With `CC[C@H](C)[C@H](NC(=O)[C@H](CCC(=O)O)NC(=O)[C@H](CO)NC(=O)[C@@H](NC(=O)[C@H](CO)NC(C)=O)C(C)C)C(=O)N[C@@H](CCC(N)=O)C(=O)N[C@@H](CC(C)C)C(=O)N[C@@H](CCSC)C(=O)N[C@@H](Cc1cnc[nH]1)C(=O)N[C@@H](CC(N)=O)C(=O)N[C@@H](CC(C)C)C(=O)NCC(=O)N[C@@H](CCCCN)C(=O)N[C@@H](C)C(=O)N[C@@H](CC(C)C)C(=O)N[C@@H](CC(N)=O)C(=O)N[C@@H](CO)C(=O)N[C@@H](CCSC)C(=O)N[C@@H](CCC(=O)O)C(=O)N[C@@H](CCCNC(=N)N)C(=O)N[C@H](C(=O)N[C@@H](CCC(=O)O)C(=O)N[C@@H](Cc1c[nH]c2ccccc12)C(=O)N[C@@H](CC(C)C)C(=O)N[C@@H](CCCNC(=N)N)C(=O)N[C@@H](CCCCN)C(=O)N[C@@H](CCCCN)C(=O)N[C@@H](CC(C)C)C(=O)N[C@@H](CCC(N)=O)C(=O)N[C@@H](CC(=O)O)C(=O)N[C@H](C(=O)N[C@@H](Cc1cnc[nH]1)C(=O)N[C@@H](CC(N)=O)C(=O)N[C@@H](Cc1ccccc1)C(N)=O)C(C)C)C(C)C` the Activity was “Non-Toxic”. In the case of `CC[C@H](C)[C@H](NC(=O)[C@H](CCC(=O)O)NC(=O)[C@H](CO)NC(=O)[C@@H](NC(=O)[C@H](CO)NC(C)=O)C(C)C)C(=O)N[C@@H](CCC(N)=O)C(=O)N[C@@H](CC(C)C)C(=O)N[C@@H](CCSC)C(=O)N[C@@H](Cc1cnc[nH]1)C(=O)N[C@@H](CC(N)=O)C(=O)N[C@@H](CC(C)C)C(=O)NCC(=O)N[C@@H](CCCCN)C(=O)N[C@@H](Cc1cnc[nH]1)C(=O)N[C@@H](CC(C)C)C(=O)N[C@@H](CC(N)=O)C(=O)N[C@@H](CO)C(=O)N[C@@H](CCSC)C(=O)N[C@@H](CCC(=O)O)C(=O)N[C@@H](CCCNC(=N)N)C(=O)N[C@@H](C)C(=O)N[C@@H](CCC(=O)O)C(=O)N[C@@H](Cc1c[nH]c2ccccc12)C(=O)N[C@@H](CC(C)C)C(=O)N[C@@H](CCCNC(=N)N)C(=O)N[C@@H](CCCCN)C(=O)N[C@@H](CCCCN)C(=O)N[C@@H](CC(C)C)C(=O)N[C@@H](CCC(N)=O)C(=O)N[C@@H](CC(=O)O)C(=O)N[C@H](C(=O)N[C@@H](Cc1cnc[nH]1)C(=O)N[C@@H](CC(N)=O)C(=O)N[C@@H](Cc1ccccc1)C(N)=O)C(C)C`, the Activity is reported as “Non-Toxic”. In the case of `CC[C@H](C)[C@H](NC(=O)[C@H](CCC(=O)O)NC(=O)[C@H](CO)NC(=O)[C@@H](NC(=O)[C@H](CO)NC(C)=O)C(C)C)C(=O)N[C@@H](C)C(=O)N[C@@H](CC(C)C)C(=O)N[C@@H](CCSC)C(=O)N[C@@H](Cc1cnc[nH]1)C(=O)N[C@@H](CC(N)=O)C(=O)N[C@@H](CC(C)C)C(=O)NCC(=O)N[C@@H](CCCCN)C(=O)N[C@@H](Cc1cnc[nH]1)C(=O)N[C@@H](CC(C)C)C(=O)N[C@@H](CC(N)=O)C(=O)N[C@@H](CO)C(=O)N[C@@H](CCSC)C(=O)N[C@@H](CCC(=O)O)C(=O)N[C@@H](CCCNC(=N)N)C(=O)N[C@H](C(=O)N[C@@H](CCC(=O)O)C(=O)N[C@@H](Cc1c[nH]c2ccccc12)C(=O)N[C@@H](CC(C)C)C(=O)N[C@@H](CCCNC(=N)N)C(=O)N[C@@H](CCCCN)C(=O)N[C@@H](CCCCN)C(=O)N[C@@H](CC(C)C)C(=O)N[C@@H](CCC(N)=O)C(=O)N[C@@H](CC(=O)O)C(=O)N[C@H](C(=O)N[C@@H](Cc1cnc[nH]1)C(=O)N[C@@H](CC(N)=O)C(=O)N[C@@H](Cc1ccccc1)C(N)=O)C(C)C)C(C)C`, the Activity is reported as “Non-Toxic”. For `CC[C@H](C)[C@H](NC(=O)[C@H](CCC(=O)O)NC(=O)[C@H](CO)NC(=O)[C@@H](NC(=O)[C@H](CO)NC(C)=O)C(C)C)C(=O)N[C@@H](CCC(N)=O)C(=O)N[C@@H](CC(C)C)C(=O)N[C@@H](CCSC)C(=O)N[C@@H](Cc1cnc[nH]1)C(=O)N[C@@H](CC(N)=O)C(=O)N[C@@H](CC(C)C)C(=O)NCC(=O)N[C@@H](CCCCN)C(=O)N[C@@H](Cc1cnc[nH]1)C(=O)N[C@@H](CC(C)C)C(=O)N[C@@H](CC(N)=O)C(=O)N[C@@H](CO)C(=O)N[C@@H](CCSC)C(=O)N[C@@H](CCC(=O)O)C(=O)N[C@@H](CCCNC(=N)N)C(=O)N[C@H](C(=O)N[C@@H](CCC(=O)O)C(=O)N[C@@H](Cc1c[nH]c2ccccc12)C(=O)N[C@@H](CC(C)C)C(=O)N[C@@H](CCCNC(=N)N)C(=O)N[C@@H](CCCCN)C(=O)N[C@@H](C)C(=O)N[C@@H](CC(C)C)C(=O)N[C@@H](CCC(N)=O)C(=O)N[C@@H](CC(=O)O)C(=O)N[C@H](C(=O)N[C@@H](Cc1cnc[nH]1)C(=O)N[C@@H](CC(N)=O)C(=O)N[C@@H](Cc1ccccc1)C(N)=O)C(C)C)C(C)C`, the Activity was “Non-Toxic”. With `CC[C@H](C)[C@H](NC(=O)[C@H](CCC(=O)O)NC(=O)[C@H](CO)NC(=O)[C@@H](NC(=O)[C@H](CO)NC(C)=O)C(C)C)C(=O)N[C@@H](CCC(N)=O)C(=O)N[C@@H](CC(C)C)C(=O)N[C@@H](CCSC)C(=O)N[C@@H](Cc1cnc[nH]1)C(=O)N[C@@H](CC(N)=O)C(=O)N[C@@H](CC(C)C)C(=O)NCC(=O)N[C@@H](CCCCN)C(=O)N[C@@H](Cc1cnc[nH]1)C(=O)N[C@@H](CC(C)C)C(=O)N[C@@H](CC(N)=O)C(=O)N[C@@H](C)C(=O)N[C@@H](CCSC)C(=O)N[C@@H](CCC(=O)O)C(=O)N[C@@H](CCCNC(=N)N)C(=O)N[C@H](C(=O)N[C@@H](CCC(=O)O)C(=O)N[C@@H](Cc1c[nH]c2ccccc12)C(=O)N[C@@H](CC(C)C)C(=O)N[C@@H](CCCNC(=N)N)C(=O)N[C@@H](CCCCN)C(=O)N[C@@H](CCCCN)C(=O)N[C@@H](CC(C)C)C(=O)N[C@@H](CCC(N)=O)C(=O)N[C@@H](CC(=O)O)C(=O)N[C@H](C(=O)N[C@@H](Cc1cnc[nH]1)C(=O)N[C@@H](CC(N)=O)C(=O)N[C@@H](Cc1ccccc1)C(N)=O)C(C)C)C(C)C` the Activity was “Non-Toxic”. In the case of `CC[C@H](C)[C@H](NC(=O)[C@H](CCC(=O)O)NC(=O)[C@H](CO)NC(=O)[C@@H](NC(=O)[C@H](C)NC(C)=O)C(C)C)C(=O)N[C@@H](CCC(N)=O)C(=O)N[C@@H](CC(C)C)C(=O)N[C@@H](CCSC)C(=O)N[C@@H](Cc1cnc[nH]1)C(=O)N[C@@H](CC(N)=O)C(=O)N[C@@H](CC(C)C)C(=O)NCC(=O)N[C@@H](CCCCN)C(=O)N[C@@H](Cc1cnc[nH]1)C(=O)N[C@@H](CC(C)C)C(=O)N[C@@H](CC(N)=O)C(=O)N[C@@H](CO)C(=O)N[C@@H](CCSC)C(=O)N[C@@H](CCC(=O)O)C(=O)N[C@@H](CCCNC(=N)N)C(=O)N[C@H](C(=O)N[C@@H](CCC(=O)O)C(=O)N[C@@H](Cc1c[nH]c2ccccc12)C(=O)N[C@@H](CC(C)C)C(=O)N[C@@H](CCCNC(=N)N)C(=O)N[C@@H](CCCCN)C(=O)N[C@@H](CCCCN)C(=O)N[C@@H](CC(C)C)C(=O)N[C@@H](CCC(N)=O)C(=O)N[C@@H](CC(=O)O)C(=O)N[C@H](C(=O)N[C@@H](Cc1cnc[nH]1)C(=O)N[C@@H](CC(N)=O)C(=O)N[C@@H](Cc1ccccc1)C(N)=O)C(C)C)C(C)C`, the Activity is reported as “Non-Toxic”. With `CC[C@H](C)[C@H](NC(=O)[C@H](CCC(=O)O)NC(=O)[C@H](CO)NC(=O)[C@@H](NC(=O)[C@H](CO)NC(C)=O)C(C)C)C(=O)N[C@@H](CCC(N)=O)C(=O)N[C@@H](CC(C)C)C(=O)N[C@@H](CCSC)C(=O)N[C@@H](Cc1cnc[nH]1)C(=O)N[C@@H](CC(N)=O)C(=O)N[C@@H](CC(C)C)C(=O)NCC(=O)N[C@@H](CCCCN)C(=O)N[C@@H](Cc1cnc[nH]1)C(=O)N[C@@H](CC(C)C)C(=O)N[C@@H](CC(N)=O)C(=O)N[C@@H](CO)C(=O)N[C@@H](CCSC)C(=O)N[C@@H](CCC(=O)O)C(=O)N[C@@H](CCCNC(=N)N)C(=O)N[C@H](C(=O)N[C@@H](C)C(=O)N[C@@H](Cc1c[nH]c2ccccc12)C(=O)N[C@@H](CC(C)C)C(=O)N[C@@H](CCCNC(=N)N)C(=O)N[C@@H](CCCCN)C(=O)N[C@@H](CCCCN)C(=O)N[C@@H](CC(C)C)C(=O)N[C@@H](CCC(N)=O)C(=O)N[C@@H](CC(=O)O)C(=O)N[C@H](C(=O)N[C@@H](Cc1cnc[nH]1)C(=O)N[C@@H](CC(N)=O)C(=O)N[C@@H](Cc1ccccc1)C(N)=O)C(C)C)C(C)C` the Activity was “Non-Toxic”. For `CC[C@H](C)[C@H](NC(=O)[C@H](CCC(=O)O)NC(=O)[C@H](CO)NC(=O)[C@@H](NC(=O)[C@H](CO)NC(C)=O)C(C)C)C(=O)N[C@@H](CCC(N)=O)C(=O)N[C@@H](CC(C)C)C(=O)N[C@@H](CCSC)C(=O)N[C@@H](Cc1cnc[nH]1)C(=O)N[C@@H](CC(N)=O)C(=O)N[C@@H](CC(C)C)C(=O)N[C@@H](C)C(=O)N[C@@H](CCCCN)C(=O)N[C@@H](Cc1cnc[nH]1)C(=O)N[C@@H](CC(C)C)C(=O)N[C@@H](CC(N)=O)C(=O)N[C@@H](CO)C(=O)N[C@@H](CCSC)C(=O)N[C@@H](CCC(=O)O)C(=O)N[C@@H](CCCNC(=N)N)C(=O)N[C@H](C(=O)N[C@@H](CCC(=O)O)C(=O)N[C@@H](Cc1c[nH]c2ccccc12)C(=O)N[C@@H](CC(C)C)C(=O)N[C@@H](CCCNC(=N)N)C(=O)N[C@@H](CCCCN)C(=O)N[C@@H](CCCCN)C(=O)N[C@@H](CC(C)C)C(=O)N[C@@H](CCC(N)=O)C(=O)N[C@@H](CC(=O)O)C(=O)N[C@H](C(=O)N[C@@H](Cc1cnc[nH]1)C(=O)N[C@@H](CC(N)=O)C(=O)N[C@@H](Cc1ccccc1)C(N)=O)C(C)C)C(C)C`, the Activity was “Non-Toxic”. With `CC[C@H](C)[C@H](NC(=O)[C@H](CCC(=O)O)NC(=O)[C@H](CO)NC(=O)[C@H](C)NC(=O)[C@H](CO)NC(C)=O)C(=O)N[C@@H](CCC(N)=O)C(=O)N[C@@H](CC(C)C)C(=O)N[C@@H](CCSC)C(=O)N[C@@H](Cc1cnc[nH]1)C(=O)N[C@@H](CC(N)=O)C(=O)N[C@@H](CC(C)C)C(=O)NCC(=O)N[C@@H](CCCCN)C(=O)N[C@@H](Cc1cnc[nH]1)C(=O)N[C@@H](CC(C)C)C(=O)N[C@@H](CC(N)=O)C(=O)N[C@@H](CO)C(=O)N[C@@H](CCSC)C(=O)N[C@@H](CCC(=O)O)C(=O)N[C@@H](CCCNC(=N)N)C(=O)N[C@H](C(=O)N[C@@H](CCC(=O)O)C(=O)N[C@@H](Cc1c[nH]c2ccccc12)C(=O)N[C@@H](CC(C)C)C(=O)N[C@@H](CCCNC(=N)N)C(=O)N[C@@H](CCCCN)C(=O)N[C@@H](CCCCN)C(=O)N[C@@H](CC(C)C)C(=O)N[C@@H](CCC(N)=O)C(=O)N[C@@H](CC(=O)O)C(=O)N[C@H](C(=O)N[C@@H](Cc1cnc[nH]1)C(=O)N[C@@H](CC(N)=O)C(=O)N[C@@H](Cc1ccccc1)C(N)=O)C(C)C)C(C)C` the Activity was “Non-Toxic”.
